{"source": "patent US11471674B2", "about": "“Electroosmotic convection-enhanced delivery system” (University of Pittsburgh—Of the Commonwealth System of …, priority 2012, dated 2022)", "key": {"[1]": {"assay": "In vivo electrokinetic infusion via open tube catheter, volume of distribution", "details": "rat thalamus, 25.0 μA for 45 minutes", "description": "Male Sprague-Dawley rats, with weights ranging from 260 to 290 g, were anesthetized with isoflurane, and wrapped in a 37° C. homeothermic blanket. An incisor bar was set at 0 mm at the interaural line. Rats underwent aseptic stereotactic surgery, whereby bilateral craniotomies were made to position an infusion catheter and counter catheter into the thalami bilaterally (from bregma: 4.0 mm lateral, 1.3 mm posterior, and 5.0 mm below the dura) for volumetric analysis. The capillaries were also implanted into the hippocampi bilaterally (from bregma: 4.0 mm lateral, 1.3 mm posterior, and 2.5 mm below the dura). […]\n(§1) After the electrokinetic infusion period, the rats underwent rapid transcardial perfusion with 250 mL of 8% cold paraformaldehyde in PBS. […] Vibratome sectioning was quantitative, with no discarded tissue between slices with a visible fluorophore spot. […] The 300 μm thick coronal slices were mounted onto glass slides and imaged with an inverted fluorescence microscope. Image sequences were acquired and the fluorescent intensity was measured.\nThe volumes of distribution from the infusions were determined by evaluating the fluorescence intensities amongst the coronal tissue slices. The overall maximum fluorescence intensity (I0) at the infusion catheter implantation site was determined for each rat. […]"}, "[2]": {"assay": "In vivo electrokinetic infusion via hollow fiber probe, volume of distribution", "details": "rat striatum, 25 μA, 45 minutes", "text": "In the experiments described below, the distal end of the hollow fiber catheter was a hollow fiber having a 280 μm inside and 360 μm outside diameter, and a length of 3-4 mm (724). A 10- or 15-cm long fused silica catheter ([…] and 670 μm outside diameters, 720) directs fluid to the hollow fiber probe. The 100 μm inside diameter infusion catheter 720 was filled with the fluorophore solution of interest, as detailed below, in a glucose-free HEPES-buffered salt solution (GF-HBSS), containing in mM: 143.4 NaCl, 5 HEPES, 5.4 KCl, 1.2 MgSO4, 1.2 NaH2PO4, and 2.0 CaCl2. The probe was placed in a vial containing the same solution (704) through a septum. […]\nas §1, with “phosphate buffer solution.” for “PBS.”, “200” for “300”, “microscope.” for “microscope. Image sequences were acquired and the fluorescent intensity was measured.”\nThe volumes of distribution from the infusions were determined by measuring the fluorescence intensities in each coronal slice. The fluorescent area in each image was determined by counting pixels above a threshold value dictated by the noise level in the background (nonfluorescent portion of the image). […]"}, "[3]": {"assay": "Electrophoretic mobility of infusates", "assay_type": "physicochemical", "details": "N = 3", "text": "As noted above, three solutes of varying molecular weight and electrophoretic mobilities were utilized for in vivo infusions. BODIPY labeled 10 kDa dextran (B10) and TR70 were selected because of their dissimilar molecular weights, their ability to be resolved spectroscopically, and their small electrophoretic mobilities, as shown in Table 1 below (Vd at 10% of I0 calculated as in paragraph 25). The electrophoretic mobility is the ratio of the velocity that a molecule adopts in the presence of an electric field of a particular magnitude. For comparison, the electroosmotic mobility is the velocity that the fluid adopts in the presence of an electric field. The […] is directly proportional to the magnitude of the zeta potential governing the electroosmotic flow which we estimate to be −22.8 mV (Guy, Y. et al., “Determination of zeta-potential in rat organotypic hippocampal cultures.” Biophysical Journal, (2008) 94: 4561-9; Guy et al., “Determination of Zeta-Potential and Tortuosity in Rat Organotypic Hippocampal Cultures from Electroosmotic Velocity Measurements under Feedback Control.” Anal. Chem. (2009) 81:3001-7, both of which are hereby incorporated by reference). The electroosmotic mobility of the extracellular fluid in brain is 1.7×10^−8 m^2/Vs. This is much larger than the electrophoretic mobilities of the two fluorescent dextrans in Table 1. […]"}}, "data": [{"compound": "[Ru+2].c1ccc(-c2ccccn2)nc1.c1ccc(-c2ccccn2)nc1.c1ccc(-c2ccccn2)nc1", "note": "[Ru(bpy)3^2+, tris(2,2′-bipyridyl)ruthenium(II)]", "values": [{"measurement": "Vd at 10% of I0", "setting": "[1]; calculated", "result": 260, "unit": "µL"}, {"measurement": "Vd at 25% of I0", "setting": "[1]; open tube catheter, mean±SEM", "result": "13.0 ± 2.0", "unit": "µL"}, {"measurement": "volume of distribution (fluorescent volume)", "setting": "[2]", "result": 9.0, "unit": "µL"}, {"measurement": "Electrophoretic Mobility (μep)", "setting": "[3]", "result": "25.86 ± 0.02 10^−9 m^2/Vs"}]}]}
